Reference: US7728000B2, “Substituted quinolines for the treatment of cancer” (Crystax Pharmaceuticals, priority 2003, dated 2010)

Assays:
Jurkat clon E6-1 = assay: In vitro cytotoxicity, colorimetric MTT assay on Jurkat clon E6-1; type: cell-based; settings: human leukemia cell line, concentrations up to 100 mikroM, incubation until 72 h, read-out: IC50 (_M) Jurkat clon E6-1
Description: (§1) The in vitro cytotoxicity of the compounds of the present invention was evaluated by colorimetric assays with tetrazol salts (MTT) on Jurkat clon E6-1 and on GLC-4, human leukemia and carcinoma cell lines, respectively. This assay is based on the capacity of live cells to incorporate and reduce the MTT, […], only active in live cells. The intensity of observed colour is directly correlated with the quantity of live cells in the sample as it is described by Mosmann et al., J. Immunol. Methods 1983, vol. 65, p. 55. In all cases the concentrations used were up to 100 mikroM and times of incubation until 72 h.

GLC-4 = assay: In vitro cytotoxicity, colorimetric MTT assay on GLC-4; type: cell-based; settings: GLC4, human carcinoma cell line, concentrations up to 100 mikroM, incubation until 72 h, read-out: IC50 (_M)GLC-4
Description: as §1

| melting point | SMILES | IC50 (Jurkat clon E6-1) | IC50 (GLC-4) |
| --- | --- | --- | --- |
| 108 to 110 °C | CN(CCCNC(=O)c1c2ccccc2nc2ccccc12)CCCNC(=O)c1c2ccccc2nc2c1[nH]c1ccccc12 [Ia, N-[3-[[3-[(9-acridinecarbonyl)amino]propyl]methylamino]propyl]-10H-indolo[3,2-b]quinoline-11-carboxamide] | 1420 nM | 1630 nM |
|  | CN(C)CCNc1c2nc3ccccc3c-2n(C)c2ccccc12 [Ip, N,N-dimethyl-N′-(5-methyl-5H-indolo[3,2-b]quinolin-11-yl)-ethane-1,2-diamine] | 260 nM | 670 nM |
|  | CN(C)CCNC(=O)c1c2ccccc2nc2c1[nH]c1ccccc12 [Iu, 10H-indolo[3,2-b]quinoline-11-carboxylic acid (2-dimethylamino-ethyl)amide] | 18700 nM | 15700 nM |
| 188 to 189 °C | CC(CNC(=O)c1c2ccccc2nc2c1[nH]c1ccccc12)N(C)C (stereo not shown) [Iv, 10H-Indolo[3,2-b]quinoline-11-carboxylic acid (2-dimethylamino-propyl)amide] |  | 16700 nM |
|  | CC(CN(C)C)Nc1c2nc3ccccc3c-2n(C)c2ccccc12 (stereo not shown) [Iw, N,N-dimethyl-N′-(5-methyl-5H-indolo[3,2-b]quinolin-11-yl)-propane-1,2-diamine] |  | 1080 nM |
